Experimental data published in PubChem BioAssay (NCI).
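Assay format: 96-well plates, 48-hour exposure. GI50 marks 50% less growth. TGI: total growth inhibition.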

How the values were obtained:
Experiment in all cases: NCI-60 cell line screen, 48 h; in the data active = GI50 below about 0.43 µM; inactive = the rest
SK-MEL-2 melanoma = system: SK-MEL-2 melanoma
UACC-257 melanoma = system: UACC-257 melanoma
U251 CNS = system: U251 CNS
HCT-15 colon = system: HCT-15 colon
SNB-75 CNS = system: SNB-75 CNS
K-562 leukemia = system: K-562 leukemia
BT-549 breast = system: BT-549 breast
CAKI-1 renal = system: CAKI-1 renal
SK-MEL-5 melanoma = system: SK-MEL-5 melanoma
OVCAR-5 ovarian = system: OVCAR-5 ovarian
MCF7 breast = system: MCF7 breast
COLO 205 colon = system: COLO 205 colon
HCT-116 colon = system: HCT-116 colon
HS 578T breast = system: HS 578T breast
786-0 renal = system: 786-0 renal
SK-OV-3 ovarian = system: SK-OV-3 ovarian
LOX IMVI melanoma = system: LOX IMVI melanoma
TK-10 renal = system: TK-10 renal
SF-268 CNS = system: SF-268 CNS
CCRF-CEM leukemia = system: CCRF-CEM leukemia
T-47D breast = system: T-47D breast
RXF 393 renal = system: RXF 393 renal
NCI-H460 lung = system: NCI-H460 lung
OVCAR-8 ovarian = system: OVCAR-8 ovarian
SF-295 CNS = system: SF-295 CNS
HCC-2998 colon = system: HCC-2998 colon
HL-60(TB) leukemia = system: HL-60(TB) leukemia
SNB-19 CNS = system: SNB-19 CNS
EKVX NSCLC = system: EKVX NSCLC
DU-145 prostate = system: DU-145 prostate
MDA-MB-231 breast = system: MDA-MB-231 breast
MOLT-4 leukemia = system: MOLT-4 leukemia
A549 NSCLC = system: A549 NSCLC
OVCAR-3 ovarian = system: OVCAR-3 ovarian
A498 renal = system: A498 renal
HOP-62 NSCLC = system: HOP-62 NSCLC
SF-539 CNS = system: SF-539 CNS
HT29 colon = system: HT29 colon
PC-3 prostate = system: PC-3 prostate
NCI-H226 lung = system: NCI-H226 lung
OVCAR-4 ovarian = system: OVCAR-4 ovarian
KM12 colon = system: KM12 colon
M14 melanoma = system: M14 melanoma
SK-MEL-28 melanoma = system: SK-MEL-28 melanoma
MALME-3M melanoma = system: MALME-3M melanoma
SN12C renal = system: SN12C renal
SW-620 colon = system: SW-620 colon
RPMI-8226 leukemia = system: RPMI-8226 leukemia
HOP-92 NSCLC = system: HOP-92 NSCLC
NCI-H23 lung = system: NCI-H23 lung
UO-31 renal = system: UO-31 renal
ACHN renal = system: ACHN renal
NCI/ADR-RES ovarian = system: NCI/ADR-RES ovarian
UACC-62 melanoma = system: UACC-62 melanoma
MDA-MB-435 = system: MDA-MB-435
NCI-H522 lung = system: NCI-H522 lung
IGROV1 ovarian = system: IGROV1 ovarian

CC(=O)c1c(O)ccc2c1c1c(n2C)C(=O)c2ccccc2C1=O
> 48.5 µM: TGI (EKVX NSCLC)
> 28.1 µM: TGI (TK-10 renal)
7.97 µM: TGI (SF-268 CNS)
5.97 µM: TGI (SNB-75 CNS)
> 44.7 µM: TGI (CCRF-CEM leukemia)
4.46 µM: TGI (T-47D breast)
> 21 µM: TGI (MCF7 breast)
> 100 µM: TGI (SK-MEL-2 melanoma) | TGI (UACC-257 melanoma) | TGI (U251 CNS) | TGI (HCT-15 colon) | TGI (K-562 leukemia) | TGI (BT-549 breast) | TGI (CAKI-1 renal) | TGI (SK-MEL-5 melanoma) | TGI (OVCAR-5 ovarian) | TGI (COLO 205 colon) | TGI (HCT-116 colon) | TGI (HS 578T breast) | TGI (786-0 renal) | TGI (SK-OV-3 ovarian) | TGI (LOX IMVI melanoma) | TGI (RXF 393 renal) | TGI (NCI-H460 lung) | TGI (OVCAR-8 ovarian) | TGI (SF-295 CNS) | TGI (HL-60(TB) leukemia) | TGI (SNB-19 CNS) | TGI (DU-145 prostate) | TGI (MDA-MB-231 breast) | TGI (MOLT-4 leukemia) | TGI (A549 NSCLC) | TGI (A498 renal) | TGI (HOP-62 NSCLC) | TGI (SF-539 CNS) | TGI (HT29 colon)
6.47 µM: TGI (OVCAR-3 ovarian)
1.36 µM: TGI (HCC-2998 colon)

Cn1cc(-c2csc(-c3c[nH]c4ccc(Br)cc34)n2)c2cnccc21
6.37 µM: TGI (EKVX NSCLC)
5.84 µM: TGI (TK-10 renal)
inactive: GI50 (SK-MEL-2 melanoma) 2.58 µM | GI50 (PC-3 prostate) 2.02 µM | GI50 (HCT-15 colon) 1.38 µM | GI50 (BT-549 breast) 26.3 µM | GI50 (SK-MEL-5 melanoma) 1.88 µM | GI50 (MCF7 breast) 1.77 µM | GI50 (NCI-H226 lung) 2.34 µM | GI50 (OVCAR-4 ovarian) 2.35 µM | GI50 (HCT-116 colon) 1.56 µM | GI50 (HS 578T breast) 2.47 µM | GI50 (786-0 renal) 1.63 µM | GI50 (TK-10 renal) 1.97 µM | GI50 (SF-268 CNS) 2.83 µM | GI50 (KM12 colon) 2.33 µM | GI50 (M14 melanoma) 1.87 µM | GI50 (RXF 393 renal) 1.47 µM | GI50 (NCI-H460 lung) 1.92 µM | GI50 (SK-MEL-28 melanoma) 1.7 µM | GI50 (HL-60(TB) leukemia) 2.11 µM | GI50 (SNB-19 CNS) 3.67 µM | GI50 (EKVX NSCLC) 2.5 µM | GI50 (DU-145 prostate) 2.25 µM | GI50 (MDA-MB-231 breast) 2.34 µM | GI50 (MALME-3M melanoma) 2.23 µM | GI50 (A549 NSCLC) 2.81 µM | GI50 (SN12C renal) 1.75 µM | GI50 (OVCAR-3 ovarian) 2.08 µM | GI50 (SW-620 colon) 1.81 µM | GI50 (A498 renal) 12.6 µM | GI50 (RPMI-8226 leukemia) 2.13 µM | GI50 (HOP-62 NSCLC) 3.17 µM | GI50 (HOP-92 NSCLC) 2.98 µM | GI50 (NCI-H23 lung) 2.73 µM | GI50 (SF-539 CNS) 2.14 µM
4.8 µM: TGI (RPMI-8226 leukemia)
6.35 µM: TGI (SK-MEL-2 melanoma)
1.86 µM: TGI (CCRF-CEM leukemia)
3.71 µM: TGI (MCF7 breast)
active: GI50 (K-562 leukemia) 0.345 µM | GI50 (CCRF-CEM leukemia) 0.422 µM
3.61 µM: TGI (M14 melanoma)
4.15 µM: TGI (PC-3 prostate)
3.35 µM: TGI (SN12C renal)
2.96 µM: TGI (RXF 393 renal)
3.31 µM: TGI (SK-MEL-28 melanoma)
8.37 µM: TGI (HOP-92 NSCLC)
4.6 µM: TGI (SF-539 CNS)
11.5 µM: TGI (A549 NSCLC)
5.48 µM: TGI (KM12 colon)
4.19 µM: TGI (OVCAR-3 ovarian)
1.28 µM: TGI (K-562 leukemia)
3.46 µM: TGI (SW-620 colon)
7.91 µM: TGI (HL-60(TB) leukemia)
7.96 µM: TGI (SF-268 CNS)
3.4 µM: TGI (786-0 renal)
13.9 µM: TGI (HOP-62 NSCLC)
3.11 µM: TGI (HCT-116 colon)
5.71 µM: TGI (OVCAR-4 ovarian)
3.74 µM: TGI (NCI-H460 lung)
3.96 µM: TGI (MALME-3M melanoma)
5 µM: TGI (HS 578T breast)
4.25 µM: TGI (SK-MEL-5 melanoma)
> 100 µM: TGI (BT-549 breast) | TGI (SNB-19 CNS) | TGI (A498 renal)
5.62 µM: TGI (DU-145 prostate)
2.85 µM: TGI (HCT-15 colon)
8.79 µM: TGI (NCI-H23 lung)
6 µM: TGI (NCI-H226 lung)
5.55 µM: TGI (MDA-MB-231 breast)

COc1ccc(-c2nnc(N3CCN(C(=O)CN4CCN(c5ccccc5)CC4)CC3)nc2-c2ccc(OC)cc2)cc1
48.7 µM: TGI (SNB-75 CNS)
77.3 µM: TGI (SNB-19 CNS)
70.7 µM: TGI (SK-OV-3 ovarian)
6.64 µM: TGI (MOLT-4 leukemia)
35.3 µM: TGI (SF-539 CNS)
24 µM: TGI (HOP-92 NSCLC)
55.8 µM: TGI (SK-MEL-2 melanoma)
40 µM: TGI (UACC-62 melanoma)
29.3 µM: TGI (786-0 renal)
> 100 µM: TGI (PC-3 prostate) | TGI (UACC-257 melanoma) | TGI (U251 CNS) | TGI (UO-31 renal) | TGI (HCT-15 colon) | TGI (K-562 leukemia) | TGI (CAKI-1 renal) | TGI (SK-MEL-5 melanoma) | TGI (OVCAR-5 ovarian) | TGI (MCF7 breast) | TGI (NCI-H226 lung) | TGI (OVCAR-4 ovarian) | TGI (HCT-116 colon) | TGI (LOX IMVI melanoma) | TGI (NCI/ADR-RES ovarian) | TGI (SF-268 CNS) | TGI (CCRF-CEM leukemia) | TGI (KM12 colon) | TGI (M14 melanoma) | TGI (NCI-H460 lung) | TGI (OVCAR-8 ovarian) | TGI (SK-MEL-28 melanoma) | TGI (MDA-MB-435) | TGI (EKVX NSCLC) | TGI (DU-145 prostate) | TGI (MDA-MB-231 breast) | TGI (MALME-3M melanoma) | TGI (A549 NSCLC) | TGI (SN12C renal) | TGI (OVCAR-3 ovarian) | TGI (SW-620 colon) | TGI (NCI-H522 lung) | TGI (NCI-H23 lung) | TGI (IGROV1 ovarian)
47.7 µM: TGI (SF-295 CNS)
inactive: GI50 (SK-MEL-2 melanoma) 9.13 µM | GI50 (PC-3 prostate) 3.83 µM | GI50 (UACC-257 melanoma) 6.17 µM | GI50 (U251 CNS) 4.14 µM | GI50 (UO-31 renal) 1.91 µM | GI50 (HCT-15 colon) 3.13 µM | GI50 (SNB-75 CNS) 14.4 µM | GI50 (K-562 leukemia) 2.53 µM | GI50 (CAKI-1 renal) 6.23 µM | GI50 (SK-MEL-5 melanoma) 2.99 µM | GI50 (OVCAR-5 ovarian) > 100 µM | GI50 (MCF7 breast) 2.8 µM | GI50 (NCI-H226 lung) 3.76 µM | GI50 (COLO 205 colon) 2.57 µM | GI50 (OVCAR-4 ovarian) 6.36 µM | GI50 (HCT-116 colon) 3.19 µM | GI50 (HS 578T breast) 5.15 µM | GI50 (786-0 renal) 5.37 µM | GI50 (SK-OV-3 ovarian) 14.5 µM | GI50 (LOX IMVI melanoma) 5.78 µM | GI50 (ACHN renal) 3.92 µM | GI50 (TK-10 renal) 3.52 µM | GI50 (NCI/ADR-RES ovarian) 5.15 µM | GI50 (SF-268 CNS) 83.4 µM | GI50 (CCRF-CEM leukemia) 5.19 µM | GI50 (KM12 colon) 3.67 µM | GI50 (M14 melanoma) 4.84 µM | GI50 (RXF 393 renal) 3.36 µM | GI50 (NCI-H460 lung) 4.2 µM | GI50 (OVCAR-8 ovarian) 7.15 µM | GI50 (UACC-62 melanoma) 6.48 µM | GI50 (SF-295 CNS) 5.83 µM | GI50 (SK-MEL-28 melanoma) 14.3 µM | GI50 (HL-60(TB) leukemia) 1.89 µM | GI50 (MDA-MB-435) 6.09 µM | GI50 (SNB-19 CNS) 12.8 µM | GI50 (EKVX NSCLC) 4.91 µM | GI50 (DU-145 prostate) 13.4 µM | GI50 (MDA-MB-231 breast) 13.4 µM | GI50 (MOLT-4 leukemia) 2.04 µM | GI50 (MALME-3M melanoma) 2.29 µM | GI50 (A549 NSCLC) 4.85 µM | GI50 (SN12C renal) 2.85 µM | GI50 (OVCAR-3 ovarian) 3.39 µM | GI50 (SW-620 colon) 5.26 µM | GI50 (A498 renal) 3 µM | GI50 (RPMI-8226 leukemia) 2.06 µM | GI50 (HOP-62 NSCLC) 13 µM | GI50 (HOP-92 NSCLC) 3.49 µM | GI50 (NCI-H522 lung) 7.44 µM | GI50 (NCI-H23 lung) 6.92 µM | GI50 (SF-539 CNS) 6.03 µM | GI50 (IGROV1 ovarian) 11.1 µM
57.2 µM: TGI (COLO 205 colon)
19.1 µM: TGI (A498 renal)
22.4 µM: TGI (RXF 393 renal)
21.7 µM: TGI (ACHN renal)
5.16 µM: TGI (RPMI-8226 leukemia)
71.5 µM: TGI (HS 578T breast)
5.56 µM: TGI (HL-60(TB) leukemia)
47.6 µM: TGI (TK-10 renal)
42.7 µM: TGI (HOP-62 NSCLC)
